The source of these data is ChEMBL document CHEMBL4265953, “Exploration of novel pyrrolo[2,1-f][1,2,4]triazine derivatives with improved anticancer efficacy as dual inhibitors of c-Met/VEGFR-2” (Eur J Med Chem, 2018).

≈ marks a conversion by molar mass, not a printed value.

As usually defined, the half-life is the time in which the quantity being followed falls by half. Low values mean fast loss, high ones slow loss. Broadly, the AUC is the area under the concentration-time curve, a measure of exposure. By Tmax is commonly meant the time from dosing to the highest level. The Cmax is the highest concentration seen after dosing. For orientation: clearance means a measure of how efficiently the substance is removed, as volume per time. One may read the bioavailability as dose-corrected exposure relative to a reference, in per cent. As a reminder, the solubility is the concentration that dissolves in the medium under given conditions. As a reminder, the logP is a log measure of how a compound divides between an organic and an aqueous phase. A low value points to lower lipophilicity.

A short description of data set [1]: Half life in Sprague-Dawley rat at 2 mg/kg, iv by LC-MS analysis. In kind it is ADME, organism-based. The note with it: in vivo.
The nature of data set [2]: Half life in Sprague-Dawley rat at 10 mg/kg, po by LC-MS analysis. In kind it is ADME, organism-based. To be noted: in vivo.
Data set [3] can be described thus: AUC in Sprague-Dawley rat at 2 mg/kg, iv by LC-MS analysis. To be noted: in vivo. The class given is ADME, organism-based.
A short description of data set [4]: AUC in Sprague-Dawley rat at 10 mg/kg, po by LC-MS analysis. The class given is ADME, organism-based. To be noted: in vivo.
The nature of data set [5]: Tmax in Sprague-Dawley rat at 10 mg/kg, po by LC-MS analysis. In kind it is ADME, organism-based. The note with it: in vivo.
Data set [6] in a line: Cmax in Sprague-Dawley rat at 2 mg/kg, iv by LC-MS analysis. The class given is ADME, organism-based. Set-up: dose 2 mg/kg, route intravenous. To be noted: in vivo.
The nature of data set [7]: Cmax in Sprague-Dawley rat at 10 mg/kg, po by LC-MS analysis. Set-up: dose 10 mg/kg, route oral. The note with it: in vivo. The class given is ADME, organism-based.
Data set [8] can be described thus: Clearance in Sprague-Dawley rat at 2 mg/kg, iv by LC-MS analysis. In kind it is ADME, organism-based. The note with it: in vivo.
Data set [9] is described as follows: Oral bioavailability in Sprague-Dawley rat at 10 mg/kg by LC-MS analysis. In kind it is ADME, organism-based. The note with it: in vivo.
Data set [10] is described as follows: physchem.
The nature of data set [11]: physchem. To be noted: n-octanol/water.
For data set [12] the following is noted: octanol/water, 0.5 h.

For the compound `Cc1c(OCC(O)CN2CCN(C)CC2)cn2ncnc(Oc3ccc(NC(=O)C4(C(=O)Nc5ccc(F)cc5)CC4)cc3F)c12` (stereo not given), the half-life in [1] was 2.16 h; in data set [2] it was 5 h. The exposure (AUC) in data set [3] was found to be 239 ng·h/mL; in data set [4], 1170 ng·h/mL. The Tmax in data set [5] stood at 5 h. Also, the Cmax in data set [6] turned out to be 72.1 ng/mL; in data set [7] it was 129 ng/mL. This compound displayed a clearance in data set [8] of 139 mL/min/kg. Further, the bioavailability in data set [9] was 98.1%. In addition, the solubility at 1 h in “physchem [10]” worked out at 20.5 µg/mL (≈ 32.2 µM). In addition, in the data set “physchem [11]”, the logP at 0.5 h was determined as 2.98.

In [12], `COc1cc2nccc(Oc3ccc(NC(=O)C4(C(=O)Nc5ccc(F)cc5)CC4)cc3)c2cc1OC.O=C(O)C[C@H](O)C(=O)O` [CABOZANTINIB S-MALATE] gave a logP of 1.89. This compound returned a solubility at 1 h in the data set “physchem [10]” of 52 µg/mL.

As to `COc1cc2nccc(Oc3ccc(NC(=O)C4(C(=O)Nc5ccc(F)cc5)CC4)cc3)c2cc1OC` [CABOZANTINIB], the solubility at 1 h in the data set “physchem [10]” is less than 0.1 µg/mL. In “physchem [11]”, this compound showed a logP at 0.5 h of 3.89.
